Experimental data as given in article PMC6328429, “Synthesis of a benzoxazinthione derivative of tanaproget and pharmacological evaluation for PET imaging of PR expression” (EJNMMI Radiopharmacy and Chemistry, 2019).

Assays:
[1] = molecular target: T1, progesterone receptor (PR) (Homo sapiens, UniProt P06401); experiment: T47D alkaline phosphatase (AP) potency assay; format: cell-based; settings: for EC50 / T47D alkaline phosphatase assay EC50: agonist response, 48 h incubation; for EC50 / T47D alkaline phosphatase assay EC50 / IC50: average of at least n = 3 ± SD; for IC50: inhibition of progesterone
T1 construct: endogenous in cells; host or cells: T47D breast carcinoma cells
T1 sequence (P06401 1-933): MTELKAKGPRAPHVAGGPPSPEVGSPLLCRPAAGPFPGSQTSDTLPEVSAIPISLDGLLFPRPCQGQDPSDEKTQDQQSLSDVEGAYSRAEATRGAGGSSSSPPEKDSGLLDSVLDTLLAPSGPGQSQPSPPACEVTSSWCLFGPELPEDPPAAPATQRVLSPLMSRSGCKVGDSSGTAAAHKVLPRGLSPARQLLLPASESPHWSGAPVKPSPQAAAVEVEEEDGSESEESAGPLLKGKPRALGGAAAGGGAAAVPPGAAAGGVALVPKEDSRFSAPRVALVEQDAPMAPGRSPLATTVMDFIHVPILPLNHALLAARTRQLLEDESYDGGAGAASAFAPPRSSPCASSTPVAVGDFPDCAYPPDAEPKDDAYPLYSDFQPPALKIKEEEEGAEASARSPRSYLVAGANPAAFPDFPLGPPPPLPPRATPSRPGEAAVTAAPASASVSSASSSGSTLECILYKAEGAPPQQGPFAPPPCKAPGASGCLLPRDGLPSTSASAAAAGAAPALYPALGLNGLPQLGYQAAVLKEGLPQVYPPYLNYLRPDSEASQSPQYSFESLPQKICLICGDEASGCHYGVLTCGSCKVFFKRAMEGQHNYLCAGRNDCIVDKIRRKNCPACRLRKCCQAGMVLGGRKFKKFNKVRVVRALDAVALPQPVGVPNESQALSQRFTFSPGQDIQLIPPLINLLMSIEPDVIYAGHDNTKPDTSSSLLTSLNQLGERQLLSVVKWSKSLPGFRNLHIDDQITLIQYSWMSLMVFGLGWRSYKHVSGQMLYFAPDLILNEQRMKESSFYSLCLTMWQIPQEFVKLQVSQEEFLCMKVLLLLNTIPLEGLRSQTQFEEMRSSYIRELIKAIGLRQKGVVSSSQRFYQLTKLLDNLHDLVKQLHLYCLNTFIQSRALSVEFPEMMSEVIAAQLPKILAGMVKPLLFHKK
Protocol: The method described by Di Lorenzo et al was followed with minor adaptation (Di Lorenzo et al., [1991]). In brief, T47D breast carcinoma cells were seeded in 96-well plates at 50,000 cell/well in RPMI medium supplemented with 10% FBS. After overnight culture, the medium was changed to RPMI phenol red free containing 2% charcoal-stripped FBS. After 24 h, the cells were treated with progesterone (Sigma Aldrich, Gillingham, UK) or the library compounds. Progesterone and the test compounds were dissolved in DMSO (100%) and diluted into treatment medium to give a final DMSO (v/v) concentration of 0.1%. After incubation (48 h) the treatment was finalised by twice washing the plates with PBS. Cells were lysed by two freeze-thaw cycles (− 80 °C). Cellular alkaline phosphatase activity was determined by adding Femto ELISA-AP substrate (200 μL) and optical density measurements taken at 5 and 10 min intervals at a wavelength of 405 nm. Data was interpreted using Graphpad Prism (GraphPad, CA, USA) using the model: dose-response simulation/inhibition, log(agonist/inhibition) vs. response – variable slope (four parameters). For compounds where EC50 > 10,000, an antagonist profile was assumed and the experiment was repeated with the inclusion of progesterone (3 mM) with the library compound. Data shown in the supporting information (Additional file 1: Figure S32).

[2] = In vitro non-radioactive metabolite analysis and clearance in MLM; format: in vitro ADME, mouse
Protocol: (§1) Microsomal incubations were performed using a Hamilton Microlab Star liquid handling workstation (Hamilton Robotics, Bonaduz, Switzerland). Test compound 2 (final concentration 1 or 10 μM, 1% DMSO) was pre-incubated at 37 °C for 10 min in MLM or HLM (final concentration 1 mg/ml prepared in 10 mM PBS). Reactions were initiated by the addition of NADPH (final concentration 1 mM). Aliquots were removed from each incubation and quenched in 3 volumes of ice-cold MeOH containing internal standard olomoucine (500 nM in MeOH) at − 1, 0, 5, 15, 30 and 60 min. Incubations were conducted in singlicate. […] Terminated incubations were centrifuged at 3700 rpm at 4 °C for 30 min and supernatant taken for analysis. Microsomal incubations were analysed by liquid chromatography-tandem mass spectrometry (LC-MS/MS). This consisted of a Dionex Ultimate 3000 UHPLC system coupled to a ThermoScientific Q Exactive Plus orbitrap mass spectrometer (Thermo Fisher Scientific Inc., Waltham, USA). Chromatographic separation was achieved using an Acquity UPLC HSS T3 column (1.8 μm, 100 × 2.1 mm) (Waters, Elstree, UK) at 50 °C and a binary mobile phase gradient at a flow rate of 0.4 ml/min. Initial LC conditions comprised 10% formic acid (0.1%) in water (A), 90% methanol (B). This was ramped to […] at 12 min. Sample analysis was by positive ion electrospray ionization. The capillary voltage was 3.5 kV. Full MS/dd-MS^2 (full MS scan followed by data dependent MS/MS) and Full MS/AIF (full MS scan followed by all ion fragmentation) workflows were used in combination. Full MS was performed at a resolution of 70,000, AGC target 1 e^6; dd-MS2 at a resolution of 17,5000, AGC target 1 e^5. LC-MS response (peak area of the analyte/peak area of internal standard) was fitted to a nonlinear single exponential model using software GraphPad Prism software (v6.07, GraphPad Software, Inc., La Jolla, USA). Elimination rate constant (k) was determined and intrinsic clearance, CLint, was calculated as CLint = (V.k)/mg protein where V is the incubation volume (μl) and mg protein is the mg microsomal protein in the incubation. Identification of metabolites in microsomal incubations and elucidation of their structures was undertaken with Compound Discoverer software (v2.0.0.303, Thermo Fisher Scientific Inc., Waltham, USA).

[3] = In vitro non-radioactive metabolite analysis and clearance in HLM; format: in vitro ADME, human
Protocol: as §1

SMILES	EC50 [1] [nM]	T47D alkaline phosphatase assay EC50 [1]	IC50 [1] [nM]	further results
CC1(C)OC(=O)Nc2ccc(-c3ccc(F)c(Cl)c3)cc21 [Compound 5, 6-(3-chloro-4-fluorophenyl)-4,4-dimethyl-1H-benzo[d][1,3]oxazin-2(4H)-one]	2294 ± 0.29			
CC1(C)OC(=O)Nc2ccc(-c3ccc(F)nc3)cc21 [Compound 3, 6-(6-fluoropyridin-3-yl)-4,4-dimethyl-1H-benzo[d][1,3]oxazin-2(4H)-one]	> 10000	did not induce an agonist response	795 ± 0.25	
CC1(C)OC(=O)Nc2ccc(-c3cccnc3F)cc21 [Compound 1, 6-(2-fluoropyridin-3-yl)-4,4-dimethyl-1H-benzo[d][1,3]oxazin-2(4H)-one]	> 10000	did not induce an agonist response	844.8 ± 0.23	Clearance (CLint) in MLM ([2]; MLM 1 mg/ml, NADPH 1 mM, 37 °C): comparable clearance; Metabolite identification by mass spectrometry in MLM ([2]; MLM incubation, LC-MS/MS): defluorinated species; Clearance (CLint) in HLM ([3]; HLM 1 mg/ml, NADPH 1 mM, 37 °C): comparable clearance; Metabolite identification by mass spectrometry in HLM ([3]; HLM incubation, LC-MS/MS): defluorinated species
CC1(C)OC(=S)Nc2ccc(-c3ccc(F)nc3)cc21 [Compound 4, 6-(6-fluoropyridin-3-yl)-4,4-dimethyl-1H-benzo[d][1,3]oxazine-2(4H)-thione]	3674 ± 0.08			

Continued, in another order:

EC50 [1] [nM]	T47D alkaline phosphatase assay EC50 [1]	IC50 [1] [nM]	SMILES	further results
432.5 ± 0.24			CC1(C)OC(=S)Nc2ccc(-c3ccc(F)c(Cl)c3)cc21 [Compound 6, 6-(3-chloro-4-fluorophenyl)-4,4-dimethyl-1H-benzo[d][1,3]oxazine-2(4H)-thione]	fold more potent (EC50) than oxocarbamate derivative 5 ([1]; compound 6 versus 5): ~5 fold
0.5			Cn1c(C#N)ccc1-c1ccc2c(c1)C(C)(C)OC(=S)N2 [TNP, Tanaproget]	
